In patent US7915291B2, “Hepatitis C virus inhibitors” (Bristol-Myers Squibb Company, priority 2002, dated 2011):

Tests used:
[1] = system: HCV replicon in Huh7 cells; assay: HCV replicon cell-based assay; parameters: species or system HCV strain 1B; settings: Hepatitis C virus, Huh-7; HCV replicon, Huh7 cells; read-out: EC50 range
[2] = target: HCV NS3/4A protease complex, BMS strain (UniProt P27958, C1454S/C1711G, species not given/STRAIN_BMS); assay: Recombinant HCV NS3/4A protease complex FRET peptide assay (BMS strain); type: biochemical, HCV genotype 1a; settings: NS3/4A BMS strain; read-out: IC50 range
Summary of the method: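 Recombinant BMS-strain NS3/4A (His-tagged NS4A with three-lysine tail, E. coli) at 2-3 nM preincubated 1 min with compound, then 2 μM ester-linked NS4A/NS4B-based FRET peptide added. Fluorescence followed in real time ~15 min at 25° C. Percent inhibition from slope of linear fluorescence change versus no-compound control.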

Compound	EC50 [1] [nM]	IC50 [2] [nM]
C=C[C@@H]1C[C@]1(NC(=O)[C@@H]1C[C@@H](Oc2nccc3ccccc23)CN1C(=O)[C@@H](NC(=O)[C@@H]1COc2ccccc2O1)C(C)(C)C)C(=O)NS(=O)(=O)C1CC1 [Compound 133]	1000 to 10000	100 to 1000
C=C[C@@H]1C[C@]1(NC(=O)[C@@H]1CC(Oc2nccc3cc(OC)ccc23)CN1C(=O)[C@@H](NC(=O)C1C2CC1C2)C(C)(C)C)C(=O)NS(=O)(=O)C1CC1 (stereo partly shown) [Compound 62]	< 100	< 100
C=C[C@@H]1C[C@]1(NC(=O)[C@@H]1C[C@@H](Oc2ccnc3ccccc23)CN1C(=O)[C@@H](NC(=O)OC(C)(C)C)C(C)(C)C)C(=O)NS(C)(=O)=O [Compound 386]	1000 to 10000	100 to 1000
C=C[C@@H]1C[C@]1(NC(=O)[C@@H]1C[C@@H](Oc2cncc(-c3ccncc3)c2)CN1C(=O)[C@@H](NC(=O)OC(C)(C)C)C(C)(C)C)C(=O)NS(=O)(=O)C1CC1 [Compound 422]	1000 to 10000	< 100
C=C[C@@H]1C[C@]1(NC(=O)[C@@H]1C[C@@H](Oc2cc3c(Cl)nccc3cc2OC)CN1C(=O)[C@@H](NC(=O)OC(C)(C)C)C(C)(C)C)C(=O)NS(=O)(=O)C1CC1 [Compound 262]	< 100	< 100
C=C[C@@H]1C[C@]1(NC(=O)[C@@H]1C[C@@H](Oc2nc(-c3ccncc3)cc3ccccc23)CN1C(=O)[C@@H](NC(=O)OC(C)(C)C)C(C)(C)C)C(=O)NS(=O)(=O)C1CC1 [Compound 27]	< 100	< 100
C=CC1CC1(NC(=O)[C@@H]1C[C@@H](Oc2cc(-c3ccccc3)nc3c(C)noc23)CN1C(=O)[C@@H](NC(=O)OC(C)(C)C)C(C)(C)C)C(=O)NS(=O)(=O)C1CC1 (stereo partly shown) [Compound 10]	< 100	< 100
C=C[C@@H]1C[C@]1(NC(=O)[C@@H]1C[C@@H](Oc2nccc3cc(-n4cccn4)ccc23)CN1C(=O)[C@@H](NC(=O)OC(C)(C)C)C(C)(C)C)C(=O)NS(=O)(=O)C1CC1 [Compound 21]	< 100	< 100
C=C[C@@H]1C[C@]1(NC(=O)[C@@H]1C[C@@H](Oc2nccc3cc(OC(F)(F)F)ccc23)CN1C(=O)[C@@H](NC(=O)OC(C)(C)C)C(C)(C)C)C(=O)NS(=O)(=O)C1CC1 [Compound 282]	100 to 1000	< 100
C=C[C@@H]1C[C@]1(NC(=O)[C@@H]1C[C@@H](Oc2nccc3cc(OC)ccc23)CN1C(=O)[C@@H](NC(=O)OC(C)(C)C(F)(F)F)[C@H](C)OC)C(=O)NS(=O)(=O)C1CC1 [Compound 106]	< 100	< 100
C=C[C@@H]1C[C@]1(NC(=O)[C@@H]1C[C@@H](Oc2nccc3cc(OC)ccc23)CN1C(=O)[C@@H](NC(=O)NC(C)(C)C)C(C)(C)C)C(=O)NS(=O)(=O)C1CCC1 [Compound 383]	< 100	< 100
C=C[C@@H]1C[C@]1(NC(=O)[C@@H]1C[C@@H](Oc2nccc3cc(OC)ccc23)CN1C(=O)[C@@H](NC(=O)N[C@H](C(=O)OC)[C@@H](C)CC)C(C)(C)C)C(=O)NS(=O)(=O)C1CC1 [Compound 151]	< 100	< 100
C=C[C@@H]1C[C@]1(NC(=O)[C@@H]1C[C@@H](Oc2ccnc(Br)c2)CN1C(=O)[C@@H](NC(=O)OC1CCCC1)C(C)(C)C)C(=O)NS(=O)(=O)C1CC1 [Compound 425]	1000 to 10000	100 to 1000
C=C[C@@H]1C[C@]1(NC(=O)[C@@H]1C[C@@H](Oc2nccc3ccccc23)CN1C(=O)[C@@H](NC(=O)OCCOC)C(C)(C)C)C(=O)NS(=O)(=O)C1CC1 [Compound 124]	1000 to 10000	100 to 1000
C=C[C@@H]1C[C@]1(NC(=O)[C@@H]1C[C@@H](Oc2nc(OC)cc3ccccc23)CN1C(=O)[C@@H](NC(=O)OC(C)(C)C)C(C)(C)C)C(=O)NS(=O)(=O)C1CC1 [Compound 35]	< 100	< 100
CC[C@@H]1C[C@]1(NC(=O)[C@@H]1C[C@@H](Oc2nccc3c(F)c(OC)ccc23)CN1C(=O)[C@@H](NC(=O)OC(C)(C)C)C(C)(C)C)C(=O)NS(=O)(=O)C1CC1 [Compound 299]	100 to 1000	< 100
C=C[C@@H]1C[C@]1(NC(=O)[C@@H]1C[C@@H](Oc2nccc3ccccc23)CN1C(=O)[C@@H](NC(=O)Oc1ccc(OC)cc1)C(C)(C)C)C(=O)NS(=O)(=O)C1CC1 [Compound 123]	100 to 1000	< 100
C=C[C@@H]1C[C@]1(NC(=O)[C@@H]1C[C@@H](Oc2nccc3cc(OC)ccc23)CN1C(=O)[C@@H](NC(=O)OC(C)(C)C)C(C)C)C(=O)NS(=O)(=O)C1CC1 [Compound 12]	< 100	< 100
C=C[C@@H]1C[C@]1(NC(=O)[C@@H]1C[C@@H](Oc2nccc3ccc(C)cc23)CN1C(=O)[C@@H](NC(=O)OC(C)(C)C)C(C)(C)C)C(=O)NS(=O)(=O)C1CC1 [Compound 259]	< 100	< 100
C=C[C@@H]1C[C@]1(NC(=O)[C@@H]1C[C@@H](Nc2nc(-c3ccccc3)cs2)CN1C(=O)[C@@H](NC(=O)OC(C)(C)C)C(C)(C)C)C(=O)NS(=O)(=O)C1CC1 [Compound 53]	1000 to 10000	100 to 1000
C=CC1C[C@]1(NC(=O)[C@@H]1C[C@@H](Oc2nccc(-c3cccs3)n2)CN1C(=O)[C@@H](NC(=O)OC)C(C)(C)C)C(=O)NS(=O)(=O)C1CC1 (stereo partly shown) [Compound 337]	1000 to 10000	100 to 1000
C=C[C@@H]1C[C@]1(NC(=O)[C@@H]1C[C@@H](Oc2cncc(-c3nccs3)c2)CN1C(=O)[C@@H](NC(=O)OC(C)(C)C)C(C)(C)C)C(=O)NS(=O)(=O)C1CC1 [Compound 432]	100 to 1000	< 100
C=CC1C[C@]1(NC(=O)[C@@H]1C[C@@H](Oc2nc(-c3ccc(N(C)C)cc3)cc3cc(OC)ccc23)CN1C(=O)[C@@H](NC(=O)OC(C)(C)C)C(C)(C)C)C(=O)NS(=O)(=O)C1CC1 (stereo partly shown) [Compound 326]	< 100	< 100
C=C[C@@H]1CC1(NC(=O)[C@@H]1CC(Oc2nccc3cc(OC)ccc23)CN1C(=O)[C@@H](NC(=O)CO[C@H]1C[C@@H](C)CC[C@@H]1C(C)C)C(C)(C)C)C(=O)NS(=O)(=O)C1CC1 (stereo partly shown) [Compound 60]	1000 to 10000	< 100
CC[C@@H]1C[C@]1(NC(=O)[C@@H]1C[C@@H](Oc2nccc3cc(OC)c(F)cc23)CN1C(=O)[C@@H](NC(=O)OC(C)(C)C)C(C)(C)C)C(=O)NS(=O)(=O)C1CC1 [Compound 298]	< 100	< 100
C=C[C@@H]1C[C@]1(NC(=O)[C@@H]1C[C@@H](Oc2nccc3cc(OC)ccc23)CN1C(=O)[C@@H](NC(=O)OC(C)(C)CC)C(C)(C)C)C(=O)NS(=O)(=O)C1CCC1 [Compound 382]	100 to 1000	< 100
C=C[C@@H]1C[C@]1(NC(=O)[C@@H]1C[C@@H](Oc2cc(C)nc(-c3cccs3)c2)CN1C(=O)[C@@H](NC(=O)OC(C)(C)C)C(C)(C)C)C(=O)NS(=O)(=O)C1CC1 [Compound 438]	100 to 1000	< 100
C=C[C@@H]1C[C@]1(NC(=O)[C@@H]1C[C@@H](Oc2nccc3cc4c(cc23)OC(F)(F)O4)CN1C(=O)[C@@H](NC(=O)OC(C)(C)C)C(C)(C)C)C(=O)NS(=O)(=O)C1CC1 [Compound 288]	1000 to 10000	< 100
C=CC1C[C@]1(NC(=O)[C@@H]1C[C@@H](Oc2nc(-c3cccc(N(C)C)c3)cc3cc(OC)ccc23)CN1C(=O)[C@@H](NC(=O)OC(C)(C)C)C(C)(C)C)C(=O)NS(=O)(=O)C1CC1 (stereo partly shown) [Compound 330]	< 100	< 100
